The results in this text go back to article PMC8657459, “Rosmarinic Acid and Sodium Citrate Have a Synergistic Bacteriostatic Effect against Vibrio Species by Inhibiting Iron Uptake” (International Journal of Molecular Sciences, 2021).

The assay concerns the target T1, VmFbpA (ferric ion-binding protein A) (Vibrio metschnikovii, UniProt A0A9X0R8I3).
T1 construct: gene H8Q88_11990; WP_004394209.1 without the signal peptide '[…]'; 6× His-tag-free apo VmFbpA
Kind of assay: ITC of RA into apo VmFbpA (single-site model); supported by UV-vis peak shift and Fe3+ pull-down inhibition by ICP-MS (IC50 […]).

T1 sequence (A0A9X0R8I3 entry or part of it): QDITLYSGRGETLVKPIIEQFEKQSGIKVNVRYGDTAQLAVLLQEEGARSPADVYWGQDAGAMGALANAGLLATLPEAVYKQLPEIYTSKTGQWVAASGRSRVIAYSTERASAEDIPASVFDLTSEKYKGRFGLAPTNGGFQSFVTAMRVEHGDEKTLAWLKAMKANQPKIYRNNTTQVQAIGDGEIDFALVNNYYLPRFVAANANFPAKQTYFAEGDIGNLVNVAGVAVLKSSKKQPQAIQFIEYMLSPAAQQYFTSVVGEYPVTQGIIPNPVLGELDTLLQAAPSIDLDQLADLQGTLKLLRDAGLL

In the case of `O=C(/C=C/c1ccc(O)c(O)c1)O[C@H](Cc1ccc(O)c(O)c1)C(=O)O` [RA, rosmarinic acid], the Kd came out at 8 ± 1 µM.
